Data published in PubChem BioAssay AID248 (DTP/NCI, 2004).
“And” between values parts separate entries of the source, which are not always exact repeats. Equal values may be shown once. Toxic doses and inconclusive results are not listed. No stated cut-off is given here; in the data, active means T/C of 150% or more; inactive means T/C below 125%.

System: L1210 leukemia ip in BDF1 mice, survival T/C
Assay: NCI In Vivo Anticancer Drug Screen. Data for tumor model L1210 Leukemia (intraperitoneal) in B6D2F1 (BDF1) mice
Conditions: endpoint: mean survival time, higher = longer survival
Outline: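 Mice bearing the transplanted tumor received compound or vehicle. Survival of the treated group was divided by that of the vehicle-treated control group to give the ratio.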

[1] = dose: 50.0 mg/kg/injection, schedule: Q04DX003 (ip), vehicle: Klucel (hydroxypropylcellulose) (HPC)
[2] = dose: 100.0 mg/kg/injection, schedule: Q04DX003 (ip), vehicle: Klucel (hydroxypropylcellulose) (HPC)
[3] = dose: 200.0 mg/kg/injection, schedule: Q04DX003 (ip), vehicle: Klucel (hydroxypropylcellulose) (HPC)
[4] = dose: 400.0 mg/kg/injection, schedule: Q04DX003 (ip), vehicle: Klucel (hydroxypropylcellulose) (HPC)
[5] = dose: 100.0 mg/kg/injection, schedule: Q01DX009 (ip), vehicle: Klucel (hydroxypropylcellulose) (HPC)
[6] = dose: 200.0 mg/kg/injection, schedule: Q01DX009 (ip), vehicle: Klucel (hydroxypropylcellulose) (HPC)
[7] = dose: 100.0 mg/kg/injection, schedule: Q01DX001 (ip), vehicle: saline with Tween-80
[8] = dose: 200.0 mg/kg/injection, schedule: Q01DX001 (ip), vehicle: saline with Tween-80
[9] = dose: 400.0 mg/kg/injection, schedule: Q01DX001 (ip), vehicle: saline with Tween-80
[10] = dose: 25.0 mg/kg/injection, schedule: Q04DX002 (ip), vehicle: Klucel (hydroxypropylcellulose) (HPC)
[11] = dose: 50.0 mg/kg/injection, schedule: Q04DX002 (ip), vehicle: Klucel (hydroxypropylcellulose) (HPC)
[12] = dose: 100.0 mg/kg/injection, schedule: Q04DX002 (ip), vehicle: Klucel (hydroxypropylcellulose) (HPC)
[13] = dose: 100.0 mg/kg/injection, schedule: Q01DX001 (ip), vehicle: carboxymethylcellulose (CMC)
[14] = dose: 200.0 mg/kg/injection, schedule: Q01DX001 (ip), vehicle: carboxymethylcellulose (CMC)
[15] = dose: 100.0 mg/kg/injection, schedule: Q01DX001 (ip), vehicle: other
[16] = dose: 200.0 mg/kg/injection, schedule: Q01DX001 (ip), vehicle: other
[17] = dose: 400.0 mg/kg/injection, schedule: Q01DX001 (ip), vehicle: other
[18] = dose: 100.0 mg/kg/injection, schedule: Q01DX001 (ip), vehicle: Klucel (hydroxypropylcellulose) (HPC)
[19] = dose: 200.0 mg/kg/injection, schedule: Q01DX001 (ip), vehicle: Klucel (hydroxypropylcellulose) (HPC)
[20] = dose: 400.0 mg/kg/injection, schedule: Q01DX001 (ip), vehicle: Klucel (hydroxypropylcellulose) (HPC)

Measured: T/C

COc1ccc(-n2c(=O)c(N=Nc3ccccc3C)c(O)n(-c3ccccc3OC)c2=S)cc1
inactive: dose: 75.0 mg/kg/injection, schedule: Q01DX001 (ip), vehicle: Klucel (hydroxypropylcellulose) (HPC) 97 % of control | dose: 150.0 mg/kg/injection, schedule: Q01DX001 (ip), vehicle: Klucel (hydroxypropylcellulose) (HPC) 92 % of control

O=C(O)CSC(SCC(=O)O)c1ccccc1
inactive: [1] 108 % of control | [2] 107 % of control | [3] 100 % of control | [4] 110 % of control

CC(O)c1cccnc1 (stereo not given)
inactive: dose: 10.0 mg/kg/injection, schedule: Q01DX009 (ip), vehicle: saline 99 % of control | dose: 10.0 mg/kg/injection, schedule: Q04DX003 (ip), vehicle: saline 97 % of control | dose: 20.0 mg/kg/injection, schedule: Q01DX009 (ip), vehicle: saline 99 % of control | dose: 20.0 mg/kg/injection, schedule: Q04DX003 (ip), vehicle: saline 105 % of control | dose: 40.0 mg/kg/injection, schedule: Q01DX009 (ip), vehicle: saline 97 % of control | dose: 40.0 mg/kg/injection, schedule: Q04DX003 (ip), vehicle: saline 100 % of control

CN(C)Cc1cc(C(C)(C)CC(C)(C)C)cc(CN(C)C)c1O
inactive: [5] 97 % of control | [6] 99 % of control

C/C(=C\Cl)CN(C)S(=O)(=O)c1ccc(Br)cc1
inactive: [7] 100 % of control and 98 % of control | [5] 94 % of control | [8] 94 % of control and 95 % of control | [6] 89 % of control | [9] 96 % of control and 98 % of control

CC(=O)OC1C(C=O)OC(C)(C)OC1C1COC(=O)O1 (stereo not given)
inactive: [10] 104 % of control | [11] 93 % of control | [12] 100 % of control

CN(/N=N/N(C)c1ccccc1)c1ccccc1
inactive: dose: 6.3 mg/kg/injection, schedule: Q01DX Z (sc), vehicle: carboxymethylcellulose (CMC) 102 % of control | dose: 12.5 mg/kg/injection, schedule: Q01DX Z (sc), vehicle: carboxymethylcellulose (CMC) 113 % of control | dose: 25.0 mg/kg/injection, schedule: Q01DX Z (sc), vehicle: carboxymethylcellulose (CMC) 105 % of control and 106 % of control | dose: 50.0 mg/kg/injection, schedule: Q01DX Z (sc), vehicle: carboxymethylcellulose (CMC) 102 % of control | [13] 102 % of control | dose: 100.0 mg/kg/injection, schedule: Q01DX Z (sc), vehicle: carboxymethylcellulose (CMC) 104 % of control | dose: 150.0 mg/kg/injection, schedule: Q01DX Z (sc), vehicle: carboxymethylcellulose (CMC) 91 % of control | [14] 102 % of control | dose: 300.0 mg/kg/injection, schedule: Q01DX Z (sc), vehicle: carboxymethylcellulose (CMC) 100 % of control | dose: 400.0 mg/kg/injection, schedule: Q01DX001 (ip), vehicle: carboxymethylcellulose (CMC) 98 % of control

CCCCC(=O)NC(O)C(Cl)(Cl)C(C)Cl (stereo not given)
inactive: dose: 50.0 mg/kg/injection, schedule: Q01DX001 (ip), vehicle: other 112 % of control | [15] 91 % of control | [16] 101 % of control | [17] 101 % of control

CC(C)(C)C(=O)CC(=O)C(C)(C)C.CC(C)(C)C(=O)CC(=O)C(C)(C)C.[Cu]
inactive: dose: 75.0 mg/kg/injection, schedule: Q01DX001 (ip), vehicle: other 103 % of control | dose: 150.0 mg/kg/injection, schedule: Q01DX001 (ip), vehicle: other 94 % of control

CC(C)N(C(=O)Nc1cccc(C(F)(F)F)c1)c1ccccc1
inactive: [5] 106 % of control | [6] 104 % of control | dose: 400.0 mg/kg/injection, schedule: Q01DX009 (ip), vehicle: Klucel (hydroxypropylcellulose) (HPC) 87 % of control

Nc1nc(N)c2nc(CNc3ccc(C(=O)NCCCC(=O)O)cc3)cnc2n1 (tested in a mixture with another compound)
inactive: dose: 12.5 mg/kg/injection, schedule: Q01DX001 (ip), vehicle: Klucel (hydroxypropylcellulose) (HPC) 92 % of control | dose: 25.0 mg/kg/injection, schedule: Q01DX001 (ip), vehicle: Klucel (hydroxypropylcellulose) (HPC) 97 % of control | [18] 108 % of control

CCCCC(=O)N1CCCCC1
inactive: dose: 50.0 mg/kg/injection, schedule: Q01DX001 (ip), vehicle: carboxymethylcellulose (CMC) 104 % of control | dose: 50.0 mg/kg/injection, schedule: Q01DX009 (ip), vehicle: carboxymethylcellulose (CMC) 94 % of control and 97 % of control | dose: 50.0 mg/kg/injection, schedule: Q04DX003 (ip), vehicle: carboxymethylcellulose (CMC) 102 % of control | [13] 106 % of control | dose: 100.0 mg/kg/injection, schedule: Q01DX009 (ip), vehicle: carboxymethylcellulose (CMC) 94 % of control and 102 % of control | dose: 100.0 mg/kg/injection, schedule: Q04DX002 (ip), vehicle: carboxymethylcellulose (CMC) 98 % of control | dose: 100.0 mg/kg/injection, schedule: Q04DX003 (ip), vehicle: carboxymethylcellulose (CMC) 96 % of control | [14] 101 % of control | dose: 200.0 mg/kg/injection, schedule: Q01DX009 (ip), vehicle: carboxymethylcellulose (CMC) 96 % of control and 87 % of control | dose: 200.0 mg/kg/injection, schedule: Q04DX002 (ip), vehicle: carboxymethylcellulose (CMC) 91 % of control | dose: 200.0 mg/kg/injection, schedule: Q04DX003 (ip), vehicle: carboxymethylcellulose (CMC) 97 % of control

CC(C)CCC(O)c1cnc(OCc2ccccc2)nc1OCc1ccccc1 (stereo not given)
inactive: [2] 92 % of control | [3] 95 % of control | [4] 100 % of control

CCOC(=O)C(CCC(=O)OC)C1=NC(C)(C)CC(C)O1 (stereo not given)
inactive: [18] 106 % of control | [19] 110 % of control | [20] 97 % of control

O=C1c2ccccc2C(=O)N1c1cc([N+](=O)[O-])cc([N+](=O)[O-])c1O
inactive: [18] 98 % of control | [19] 95 % of control | [20] 88 % of control

CCCCCCCC1CCC(N)CC1 (stereo not given)
inactive: dose: 12.5 mg/kg/injection, schedule: Q04DX003 (ip), vehicle: Klucel (hydroxypropylcellulose) (HPC) 105 % of control | dose: 25.0 mg/kg/injection, schedule: Q04DX003 (ip), vehicle: Klucel (hydroxypropylcellulose) (HPC) 91 % of control | [1] 100 % of control

CCN(CC)CCNc1ccc(CO)c2oc3ccccc3c(=O)c12
inactive: dose: 50.0 mg/kg/injection, schedule: Q01DX009 (ip), vehicle: saline 99 % of control | dose: 100.0 mg/kg/injection, schedule: Q01DX009 (ip), vehicle: saline 96 % of control | dose: 200.0 mg/kg/injection, schedule: Q01DX009 (ip), vehicle: saline 99 % of control

COc1ccc(C2C3CCC(C3)C2C(C)=O)cc1 (stereo not given)
inactive: [7] 101 % of control | [8] 90 % of control | [9] 92 % of control

C1CCC2[N-]CC3CCCCC3[N-]CC3CCCCC3[N-]CC3CCCCC3[N-]CC2C1.[Cu+2].[O-][Cl+3]([O-])([O-])O (stereo not given)
inactive: dose: 12.5 mg/kg/injection, schedule: Q04DX002 (ip), vehicle: Klucel (hydroxypropylcellulose) (HPC) 111 % of control | [10] 108 % of control | [11] 108 % of control

C(=Nc1ccccc1)c1ccc2c(c1)COO2
inactive: [2] 101 % of control | [3] 101 % of control | [4] 101 % of control

C/C=C\C=N\NC(=O)C(=O)N/N=C/C=C\C
inactive: [12] 97 % of control | dose: 200.0 mg/kg/injection, schedule: Q04DX002 (ip), vehicle: Klucel (hydroxypropylcellulose) (HPC) 91 % of control | dose: 400.0 mg/kg/injection, schedule: Q04DX002 (ip), vehicle: Klucel (hydroxypropylcellulose) (HPC) 112 % of control

O=Cc1cc(Cl)ccc1O
inactive: [5] 108 % of control | [6] 102 % of control

O=[N+]([O-])c1cccc(OCCBr)c1
inactive: dose: 100.0 mg/kg/injection, schedule: Q01DX001 (ip), vehicle: saline 101 % of control | dose: 200.0 mg/kg/injection, schedule: Q01DX001 (ip), vehicle: saline 107 % of control | dose: 400.0 mg/kg/injection, schedule: Q01DX001 (ip), vehicle: saline 103 % of control

CNC(=O)c1cc(/C=C/c2c[nH]c3ccccc23)c[n+](C)c1
inactive: [15] 102 % of control | [16] 100 % of control | [17] 94 % of control
